# Test results: patent publication US10781426B2 (priority 2012, dated 2020)
# Assays:
# [1] = tested on: HCoV EMC; format: cell-based
# [2] = tested on: DPP4; format: cell-based
compound,measurement,setting,value
Nc1ncnc2c1ncn2[C@@H]1O[C@H](CO)[C@@H](O)[C@H]1O [adenosine],cells' susceptibility to virus infection,[1],reduces the cells' susceptibility to virus infection
same,virus replication,[1],reduces virus replication
same,DPP4 expression,[2],down regulates
